{"source": "patent US20020045764A1", "about": "“Tubulin binding compounds (COBRA)” (Parker Hughes Institute, priority 1998, published 2002)", "key": {"Bovine brain tubulin": {"molecular_target": "T1, Bovine brain tubulin (Bos taurus, UniProt P81947+Q6B856)", "T1 construct": "purchased Sigma, St. Louis, Mo; host or cells: bovine brain (tissue-purified)", "T1 sequence (P81947 whole entry)": "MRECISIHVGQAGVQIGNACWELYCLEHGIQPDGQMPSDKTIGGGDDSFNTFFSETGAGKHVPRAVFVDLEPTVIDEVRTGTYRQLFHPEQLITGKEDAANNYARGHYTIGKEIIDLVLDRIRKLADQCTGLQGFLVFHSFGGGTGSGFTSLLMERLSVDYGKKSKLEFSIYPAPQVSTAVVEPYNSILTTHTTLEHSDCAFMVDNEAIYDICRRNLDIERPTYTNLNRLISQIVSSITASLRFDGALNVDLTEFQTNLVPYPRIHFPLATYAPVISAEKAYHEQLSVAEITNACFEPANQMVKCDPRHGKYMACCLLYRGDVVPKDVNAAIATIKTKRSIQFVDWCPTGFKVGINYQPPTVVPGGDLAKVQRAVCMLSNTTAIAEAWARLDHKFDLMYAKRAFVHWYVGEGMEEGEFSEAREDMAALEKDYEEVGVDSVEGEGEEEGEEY", "T1 sequence (Q6B856 whole entry)": "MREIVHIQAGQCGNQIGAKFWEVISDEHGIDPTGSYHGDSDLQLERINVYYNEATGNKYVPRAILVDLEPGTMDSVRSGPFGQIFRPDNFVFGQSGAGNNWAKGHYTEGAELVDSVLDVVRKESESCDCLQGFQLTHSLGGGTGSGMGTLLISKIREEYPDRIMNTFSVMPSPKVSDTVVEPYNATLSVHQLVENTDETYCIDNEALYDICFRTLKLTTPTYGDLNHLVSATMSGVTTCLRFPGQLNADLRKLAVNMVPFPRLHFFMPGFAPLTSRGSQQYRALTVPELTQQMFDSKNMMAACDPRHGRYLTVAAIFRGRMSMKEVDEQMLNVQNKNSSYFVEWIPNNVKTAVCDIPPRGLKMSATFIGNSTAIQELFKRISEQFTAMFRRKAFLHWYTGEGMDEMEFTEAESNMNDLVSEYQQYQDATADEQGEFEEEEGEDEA", "assay": "Tubulin turbidity assay (GTP-induced tubulin polymerization)", "type": "biochemical", "method": "Bovine brain tubulin (Sigma, St. Louis, Mo.) was used in standard turbidity assays to test the effects of compounds COBRA-1 and COBRA-2 as well as control compounds on GTP-induced tubulin polymerization. Compounds (in 1% DMSO) were added to tubulin (1 mg/ml, 0.1M MES, 1 mM EGTA, 0.5 mM MgCl2, 0.1 mM EDTA, 2.5M glycerol, 1 μg/ml leupeptin, 1 μg/ml aprotinin, pH 6.5) followed by stimulation of polymerization with 1 mM GTP at 2 minutes and 1 mM taxol at 30 minutes. Optical density was measured using a Becton Dickinson UV spectrophotometer (350 nm) using a thermostated cuvette holder to keep the reaction at 37° C. Readings obtained from the spectro-photometer were standardized by subtracting the background absorbance of the compound in water from the sample reading following drug addition.\nTo test the latitude of the structure at the opposite end of the molecule from the long chain (head region), three new COBRA compounds were synthesized according to the schemes shown below: COBRA-3, COBRA-4, and COBRA-5. Each of these compounds was then tested for tubulin depolymerization activity, using the tubidity assay described in the Examples above.\nEach of these compounds was assayed for effects on GTP-dependent tubulin polymerization, using the methods described above."}, "human cell lines": {"system": "human cell lines", "assay": "Anti-cancer activity against human cell lines", "type": "cell-based"}}}
{"smiles": "CCCCCCCCCCCCSCC(NC(C)=O)C(=O)CCl", "note": "(stereo not drawn) [COBRA-5, N-Ac-S-dodecyl-Cys Chloromethyl Ketone]", "values": [{"measurement": "effect on GTP-dependent tubulin polymerization (turbidity)", "setting": "Bovine brain tubulin; 1 mg/ml tubulin, 1 mM GTP, 37° C., OD 350 nm", "value": "caused partial depolymerization of tubulin and completely inhibited its polymerization in the presence of GTP"}, {"measurement": "IC90", "setting": "Bovine brain tubulin; stated in the tubulin polymerization paragraph, assay not named", "value": 10, "unit": "µM"}, {"measurement": "anti-cancer activity against human cell lines", "setting": "human cell lines", "value": "very potent anti-cancer activity"}]}
